Measurements reported in patent US10519177B2, “Heterocyclic compounds and uses thereof” (Plexxikon Inc., priority 2013, dated 2019).
Like-named read-outs stand apart in the source and are kept apart here.

Tests used:
BRD4-BD1 (44-164) = BRD4-BD1 (44-164) (Homo sapiens (Human), UniProt O60885); test: Alphascreen binding assay BRD4-BD1; details: BRD4(1) H4; read-out: Biochemical activity (IC50 μM) BRD4(1) H4
Method in brief: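 His-tagged E. coli-expressed BRD4 BD1 (44-164) or BD1-BD2 (1-477) incubated 1 h at room temperature with biotinylated tetra-acetylated histone H4 1-21 peptide and compound in HEPES pH 7.5, NaCl, BSA, Triton X-100, DTT buffer. Ni-chelate/streptavidin AlphaScreen beads (7.5 µg/ml) added, read after 30 min; pIC50 from four-parameter fit.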

BRD4-BD12 (1-477) = BRD4-BD12 (1-477) (Homo sapiens (Human), UniProt O60885); test: Alphascreen binding assay BRD4-BD12; details: BRD4(1 2) H4; read-out: Biochemical activity (IC50 μM) BRD4(1 2) H4
Method in brief: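 First, compound was preincubated 1 h at room temperature with the His-tagged BRD4 protein (BD1 44-164 or tandem BD12 1-477) and acetylated H4 peptide. Next, donor and acceptor beads were added at 7.5 μg/ml final. After 30 min, AlphaScreen emission was recorded.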

MV-4-11 cells = test: Oncology cell growth assay MV-4-11 (CellTiter Glo); format: cell-based
Method in brief: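 MV-4-11 AML cells (MLL-AF4), 3000 per well, exposed to 8-point 1:3 compound titration from 10 μM top concentration (0.2% DMSO) for 72 h. Viability by CellTiter Glo luminescence, normalized to DMSO controls; pIC50 from four-parameter curve fit.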

bromodomain = test: at least one of the bromodomain cell assays of Example 57; format: cell-based; details: read-out: IC50 in at least one of the bromodomain cell assays
[1] = Homo sapiens, MV4-11, 72 h; read-out: Cell activity (IC50 μM) MV-4-11 3d-Growth
[2] = at least one of the bromodomain cell assays described in Example 57

| SMILES | IC50 (BRD4-BD1 (44-164)) [µM] | IC50 (BRD4-BD12 (1-477)) [µM] | IC50 (MV-4-11 cells; [1]) [µM] | IC50 (bromodomain; [2]) [nM] | IC50 (MV-4-11 cells; Homo sapiens, MV4-11, 72 h, read-out: Cell activity (IC50 μM) MV-4-11 3d-Growth) [µM] | IC50 (bromodomain) [nM] |
| --- | --- | --- | --- | --- | --- | --- |
| Cc1noc(C)c1-c1cnc2c(-c3cnn(Cc4ccccc4)c3)cn(CC3CCC(F)(F)CC3)c2c1 [P-0299, 4-[3-(1-benzylpyrazol-4-yl)-1-[(4,4-difluorocyclohexyl)methyl]pyrrolo[3,2-b]pyridin-6-yl]-3,5-dimethyl-isoxazole] | < 1 | < 1 | < 1 | < 10000 |  |  |
| Cc1noc(C)c1-c1cnc2c(-c3cnn(CCN4CCOCC4)c3)cn(CC3CCC(F)(F)CC3)c2c1 [P-0296, 4-[2-[4-[1-[(4,4-difluorocyclohexyl)methyl]-6-(3,5-dimethylisoxazol-4-yl)pyrrolo[3,2-b]pyridin-3-yl]pyrazol-1-yl]ethyl]morpholine] | < 1 | < 1 | < 1 | < 10000 |  |  |
| Cc1onc(NC(=O)OC(C)(C)C)c1-c1cnc2ccn(CC3CCC(F)(F)CC3)c2c1 [P-0323, tert-butyl N-[4-[1-[(4,4-difluorocyclohexyl)methyl]pyrrolo[3,2-b]pyridin-6-yl]-5-methyl-isoxazol-3-yl]carbamate] | 10 to 200 | < 1 | 10 to 200 | < 10000 |  |  |
| Cc1noc(C)c1-c1cnc2c(C#C[Si](C)(C)C)cn(C(C)c3ccccc3)c2c1 (centres unmarked) [P-0288, 2-[6-(3,5-dimethylisoxazol-4-yl)-1-(1-phenylethyl)pyrrolo[3,2-b]pyridin-3-yl]ethynyl-trimethyl-silane] | < 1 | < 1 |  |  | < 1 | < 10000 |
| Cc1noc(C)c1-c1cnc2c(Cl)cn(CC3CCC(F)(F)CC3)c2c1 [P-0306, 4-[3-chloro-1-[(4,4-difIuorocyclohexyl)methyl]pyrrolo[3,2-b]pyridin-6-yl]-3,5-dimethyl-isoxazole] | < 1 | < 1 | < 1 | < 10000 |  |  |
| Cc1noc(C)c1-c1cnc2c(Br)cn(C(CC#N)C3CC3)c2c1 (centres unmarked) [P-0308, 3-[3-bromo-6-(3,5-dimethylisoxazol-4-yl)pyrrolo[3,2-b]pyridin-1-yl]-3-cyclopropxl-propanenitrile] | < 1 | < 1 | < 1 | < 10000 |  |  |
| COc1ccc(-c2cnc3ccn(CC4CCC(F)(F)CC4)c3c2)cn1 [P-0312, 1-((4,4-difluorocyclohexyl)methyl]-6-(6-methoxy-3-pyridyl)pyrrolo[3,2-b]pyridine] | 1 to 10 | 10 to 200 | 10 to 200 | < 10000 |  |  |
| Cc1noc(C)c1-c1cnc2c(-c3ccc(C(=O)O)cc3)cn(S(=O)(=O)c3ccccc3)c2c1 [P-0371, 4-[1-(benzenesulfonyl)-6-(3,5-dimethylisoxazol-4-yl)pyrrolo[3,2-b]pyridin-3-yl]benzoic acid] | < 1 | < 1 | < 1 | < 10000 |  |  |
| Cc1noc(C)c1-c1cnc2c(Br)cn(CC3CCC(F)(F)CC3)c2c1 [P-0281, 4-[3-bromo-1-[(4,4-difluorocyclohexyl)methyl]pyrrolo[3,2-b]pyridin-6-yl]-3,5-dimethyl-isoxazole] | < 1 | < 1 | < 1 | < 10000 |  |  |
| Cc1noc(C)c1-c1cnc2c(-c3cnn(C)c3)cn(Cc3ncccn3)c2c1 [P-0325, 3,5-dimethyl-4-[3-(1-methylpyrazol-4-yl)-1-(pyrimidin-2-ylmethyl)pyrrolo[3,2-b]pyridin-6-yl]isoxazole] | < 1 | < 1 | < 1 | < 10000 |  |  |
| Cc1noc(C)c1-c1cnc2c(-c3ccc(C(=O)O)cc3)cn(CC3CCC(F)(F)CC3)c2c1 [P-0324, 4-[1-[(4,4-difluorocyclohexyl)methyl]-6-(3,5-dimethylisoxazol-4-yl)pyrrolo[3,2-b]pyridin-3-yl]benzoic acid] | < 1 | < 1 | < 1 | < 10000 |  |  |
| Cc1c(-c2cnc3ccn(CC4CCC(F)(F)CC4)c3c2)cnn1C [P-0293, l-[(4,4-difluorocyclohexyl)methyl]-6-(1,5-dimethylpyrazol-4-yl)pyrrolo[3,2-b]pyridine] | 10 to 200 | 10 to 200 | 10 to 200 | < 10000 |  |  |
| Cc1noc(C)c1-c1cnc2c(C#CCO)cn(CC3CCC(F)(F)CC3)c2c1 [P-0264, 3-[1-[(4,4-difluorocyclohexyl)methyl]-6-(3,5-dimethylisoxazol-4-yl)pyrrolo[3,2-b]pyridin-3-yl]prop-2-yn-1-ol] | < 1 | 1 to 10 | < 1 | < 10000 |  |  |
| Cc1noc(C)c1-c1cnc2c(-c3cnn(C)c3)cn(C(CC#N)C3CC3)c2c1 (centres unmarked) [P-0316, 3-cyclopropyl-3-[6-(3,5-dimethylisoxazol-4-yl)-3-(1-methylpyrazol-4-yl)pyrrolo[3,2-b]pyridin-1-yl]propanenitrile] | < 1 | < 1 | < 1 | < 10000 |  |  |
| Cc1noc(C)c1-c1cnc2c(-c3cnc(C4CC4)nc3)cn(C(C)c3ccccc3)c2c1 (centres unmarked) [P-0278, 4-[3-(2-cyclopropylpyrimidin-5-yl)-1-(1-phenylethyl)pyrrolo[3,2-b]pyridin-6-yl]-3,5-dimethyl-isoxazole] | < 1 | < 1 | < 1 | < 10000 |  |  |
| Cc1ccc(-c2cn(C(C)c3ccccc3)c3cc(-c4c(C)noc4C)cnc23)cn1 (centres unmarked) [P-0272, 3,5-dimethyl-4-[3-(6-methyl-3-pyridyl)-1-(1-phenylethyl)pyrrolo[3,2-b]pyridin-6-yl]isoxazole] | < 1 | < 1 | < 1 | < 10000 |  |  |
| Cc1noc(C)c1-c1cnc2c(-c3ccc(N)nc3)cn(C(C)c3ccccc3)c2c1 (centres unmarked) [P-0276, 5-[6-(3,5-dimethylisoxazol-4-yl)-1-(1-phenylethyl)pyrrolo[3,2-b]pyridin-3-yl]pyridin-2-amine] | < 1 | < 1 | < 1 | < 10000 |  |  |
| Cc1n[nH]c(C)c1-c1cn(C(C)c2ccccc2)c2cc(-c3c(C)noc3C)cnc12 (centres unmarked) [P-0287, 4-[3-(3,5-dimethyl-1H-pyrazol-4-yl)-1-(1-phenylethyl)pyrrolo[3,2-b]pyridin-6-yl]-3,5-dimethyl-isoxazole] | < 1 | < 1 | < 1 | < 10000 |  |  |
| [2H]C([2H])(C1CCC(F)(F)CC1)n1cc(C#CCO)c2ncc(-c3c(C)noc3C)cc21 [P-0370, 3-[1-[dideuterio-(4,4-difluorocyclohexyl)methyl]-6-(3,5-dimethylisoxazol-4-yl)pyrrolo[3,2-b]pyridin-3-yl]prop-2-yn-1-ol] | < 1 | < 1 | < 1 | < 10000 |  |  |
| Oc1ccc(-c2cnc3ccn(CC4CCC(F)(F)CC4)c3c2)cn1 [P-0284, 5-[1-[(4,4-difluorocyclohexyl)methyl]pyrrolo[3,2-b]pyridin-6-yl]pyridin-2-ol] | < 1 | 1 to 10 | 1 to 10 | < 10000 |  |  |
| Cc1noc(C)c1-c1cnc2c(-c3cnn(CCC#N)c3)cn(CC3CCC(F)(F)CC3)c2c1 [P-0298, 3-[4-[1-[(4,4-difluorocyclohexyl)methyl]-6-(3,5-dimethylisoxazol-4-yl)pyrrolo[3,2-b]pyridin-3-yl]pyrazol-1-yl]propanenitrile] | < 1 | < 1 | < 1 | < 10000 |  |  |
| C#Cc1cn(C(C)c2ccccc2)c2cc(-c3c(C)noc3C)cnc12 (centres unmarked) [P-0289, 4-[3-ethynyl-1-(1-phenylethyl)pyrrolo[3,2-b]pyridin-6-yl]-3,5-dimethyl-isoxazole] | < 1 | < 1 | < 1 | < 10000 |  |  |
| Cc1onc(N)c1-c1cnc2ccn(CC3CCC(F)(F)CC3)c2c1 [P-0329, 4-[1-[(4,4-difluorocyclohexyl)methyl]pyrrolo[3,2-b]pyridin-6-yl]-5-methyl-isoxazol-3-amine] | < 1 | < 1 | 1 to 10 | < 10000 |  |  |
| Cc1nnc(CCl)n1-c1cnc2[nH]ccc2c1 [P-0322, 5-[3-(chloromethyl)-5-methyl-1,2,4-triazol-4-yl]-1H-pyrrolo[2,3-b]pyridine] | 10 to 200 | 10 to 200 | 1 to 10 | < 10000 |  |  |
| Cc1noc(C)c1-c1cnc2c(Br)cn(C(CC#N)C3CCCC3)c2c1 (centres unmarked) [P-0280, 3-[3-bromo-6-(3,5-dimethylisoxazol-4-yl)pyrrolo[3,2-b]pyridin-1-yl]-3-cyclopentyl-propanenitrile] | < 1 | < 1 | < 1 | < 10000 |  |  |
| Cc1noc(C)c1-c1cnc2c(-c3cnn(CC(F)(F)F)c3)cn(C(C)c3ccccn3)c2c1 (centres unmarked) [P-0320, 3,5-dimethyl-4-[1-[1-(2-pyridyl)ethyl]-3-[1-(2,2,2-trifluoroethyl)pyrazol-4-yl]pyrrolo[3,2-b]pyridin-6-yl]isoxazole] | < 1 | < 1 | < 1 | < 10000 |  |  |
